Experimental data: patent US20230210984A1, “ADOPTIVE IMMUNOTHERAPY” (The Council of the Queensland Institute of Medical Research, priority 2019, published 2023)

What was measured:
[1] = test system: EBV-associated cell lines (nasopharyngeal and gastric cancer cell lines); assay: MTS cell viability assay, IC50 of inhibitors; assay type: cell-based
Procedure: FIG. 9: Determining the IC50 value of MEK1/2 inhibitors. Representation of the cell viability performed using MTS assay after the indicated cell lines were incubated with 0.1 μM-5 μM of selumatinib (left panel) and trametinib (right panel) for 48 hours. The data are represented as the mean±SD from three independent experiments.
FIG. 14: Determining the IC50 value of JQ1 inhibitors. Representation of the cell viability performed using MTS assay after the indicated cell lines were incubated with 0.5 μM-10 μM of JQ1 for 48 hours. The data are represented as the mean±SD from three independent experiments.
Cell viability assay was performed using the CellTiter 96® AQueous one cell viability assay reagent (Promega, WI, USA) for three biological replicates per EBV-associated cancer cell lines in triplicate. Briefly, the cancer cells (target cells) were plated at a density of 5000 cells per well in an overall media volume of 200 μL on a 96-well tissue-culture plate (BD Falcon™). The effector AdE1-LMPpoly transfected T cells were freshly thawed in RPMI-1640 with 10% FCS and 120 IU/mL of recombinant IL-2 at 37° C. and […]. Post 24 hrs of plating and incubation at 37° C. and […], the effector T cells were mixed to the target cells at a gradient ratio of effector to target (E:T) of 5:1-100:1. The exact number of T cells (To) used per E:T ratio (ET) was independently used as control alongside PBS treated target cells (Es) and sole media (M0). After 24 hrs of incubation at 37° C. and […], MTS was added to each well (1:100 dilution in media) and was incubated for 1 hour following which the plate was centrifuged at 1,200×g at room temperature for 5 min and absorbance of the mixture at an optical density of 490 nm was measured via a microplate reader. The relative cell viability was calculated using the following formula: […]
To determine the upregulation of MAPK pathway in EBV-associated solid cancers, we first identified the IC50 value of MEK1/2 inhibitors (AZD6244 or selumetanib and trematinib) across nasopharyngeal and gastric cancer cell lines (with drug concertation ranging from 0.1 μM-5 μM). […] In the next set of experiments, we wanted to determine the impact of MEK1/2 inhibition in combination with allogeneic EBV-specific T cells on EBV-associated solid cancers. As such, we treated the respective EBV-associated cell lines (both gastric and nasopharyngeal) individually or in combination with MEK1/2 inhibitors (both selumetanib and trematinib) and EBV-specific T cells.
Similarly, we targeted MYC-dependent cancer intrinsic pathway using JQ1 inhibitor by first determining the IC50 value of the inhibitor across nasopharyngeal and gastric cancer cell lines (with drug concertation ranging from 0.5 μM-10 μM). […] To characterized the impact of JQ1 inhibition in combination with allogeneic EBV-specific T cells on EBV-associated cancer cells, we used IC25 value JQ1 (2.5 μM) alongside an effector to target ratio of 25:1 of the respective HLA matched allogeneic EBV-specific T cells in vitro. […] We also performed phenotypic characterization, using flow cytometry, of SNU719 and C666.1 cells after 16 hours of individual and dual treatment in vitro.

[2] = test system: SNU719 gastric cancer xenograft; assay: SNU719 xenograft, anti-PD1 and allogenic EBV-specific T cells in vivo; set-up: species or system NOD/SCID mice
From the text: FIG. 6: Impact of PD1 inhibition on therapeutic efficacy of allogeneic EBV-specific cytotoxic T cells in vivo. (A) Heat-map representing gene signature of 326 genes observed RNA isolated from in the tumour infiltrating (TILs) CD8+ cells performed using NanoString Immune function panel. The TILS were isolated from SNU719 derived tumour xenograft from six independent mice (LT5-10) after 5 days post a single dose of TI_001 treatment when the tumour size reached 40 mm^2. The gene expression observed in TILS was compared to unstimulated (LT11) and EBV-pepmix stimulated (LT12). (B) Statistical representation comparing the (i) percentage of CD3+CD8+ population; (ii) percentage of CD8+PD1+ population; (iii) percentage of CD8+LAG3+ population; and (iv) percentage of CD8+ TIM3+ population of viable TILS (described in (A)) and compared to unstimulated T cells (T cell therapy). Error bars represent the ±SEM from three independent experiments. P-values were calculated using one-way ANOVA. Statistical representation of SNU719 derived xenograft indicating (C) tumour growth; (D) tumour weight (in gms) at ethical limit of tumour growth; (E) percent survival post T cell, anti-PD1 and combination of T cell and anti-PD1 therapy observed in respective treatment groups compared to mock (PBS) treated control group. The statistical significance of data of tumour weight was analysed by one-way ANOVA. The mice survival was monitored over the indicated period of time and the statistical significance of data was analysed by log-rank test: ns not significant, **p<0.01, ***p<0.001, and ****p<0.0001.
A total of 12-24 female NOD/SCID mice (depending on the experiment) of 7-8 weeks old were used in this study. The mice were subjected to irradiation with 0.8 Gy cobalt-60 and after 4 hours, were subcutaneously injected with 5×10^6 cells of respective EBV-associated cancer cells with a 29-gauge needle. The mice were monitored for tumour growth, weight and body score thrice weekly. Once the tumour was palpable, the mice were randomised into respective groups and were treated with respective dosage of PBS or 20×10^6 tumour HLA matched allogenic EBV-specific T-cells. The tumour size in these mice were measured thrice weekly using the Vernier Calipers. To calculate tumour area the following formula was used: tumour area=B*S where B=largest tumour measurement and S=the smallest, based on two-dimensional caliper measurements as previously described.
Based on these observations, we hypothesized that a combination of checkpoint inhibitor and T cell therapy may offer better therapeutic benefit against EBV-associated tumours.

Compound | IC50 ([1]; 48 h, read-out: IC50 (~50% reduction in cell viability)) [nM] | IC25 value (sub IC50 value) ([1]; concentration chosen for in vitro combination treatment) [nM] | SNU719 gastric cancer outgrowth ([2]; Nivolumab 24 hrs after T cell infusion, combination vs monotherapy and mock-treated groups, p<0.0001) | tumour size (tumour weight) ([2]; combination with T cells vs monotherapy groups) | survival post therapy ([2]; combination with T cells vs monotherapy or mock-treated group, p<0.0001) | better survival in comparison to only T cell treated group ([2]; combination with T cells, p<0.01) [fold]
CC(=O)Nc1cccc(-n2c(=O)n(C3CC3)c(=O)c3c(Nc4ccc(I)cc4F)n(C)c(=O)c(C)c32)c1 [trematinib] | ~2500 | 1000 |  |  |  | 
Nivolumab: anti-PD1 antibody |  |  | significantly reduced | significantly reduced tumour size | significantly improved | ~2
